Test results taken from US7361783B2, “(2S)-2-ethylphenylpropionic acid derivative” (Kyorin Pharmaceutical Co., Ltd., priority 2002, dated 2008).

target: T1, human peroxisome proliferator-activated receptor (PPAR) α (Homo sapiens, UniProt Q07869); experiment: Test of transcriptional activation on human PPARα (luciferase reporter, transfected CHO cells); format: cell-based; settings: CHO cells cotransfected with yeast DNA-binding domain/human PPARα ligand-binding domain fusion and reporter plasmid; luciferase after 24 hours, corrected with Renilla internal standard
T1 construct: expressed in transfected cells; host or cells: CHO cells
T1 sequence (Q07869 239-466 limits assumed): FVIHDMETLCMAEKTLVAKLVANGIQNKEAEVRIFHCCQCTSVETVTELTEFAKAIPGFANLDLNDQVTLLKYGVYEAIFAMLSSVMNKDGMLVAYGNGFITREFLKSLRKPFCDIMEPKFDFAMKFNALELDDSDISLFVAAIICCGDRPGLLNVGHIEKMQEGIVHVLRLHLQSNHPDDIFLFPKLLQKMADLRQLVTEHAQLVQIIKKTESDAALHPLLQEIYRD
Procedure: Test of Transcriptional Activation on Human Peroxisome Proliferator-activated Receptor (PPAR) α
The CHO cells were cultured in a Dulbecco-modified Eagle's medium containing 10% delipid fetal calf serum (FCS/DMEM). To these cells were cotransfected receptor plasmid and its reporter plasmid (STRATAGENE Corp.) that express fused protein of DNA-binding domain being transcription factor of yeast with ligand-binding domain of human PPARα (Biochemistry, 1993, 32, 5598), and luciferase plasmid of Renilla (Promega Corp.) for internal standard, using lipofectamine. Thereafter, testing compound or (8S)-HETE being a control compound was added in the 10% SFCS/DMEM and both luciferase activities were measured after 24 hours, which were corrected with internal standard.

Row | EC50 | Structure (SMILES)
1 | 1300 nM | CCCCC/C=C\C/C=C\C=C\[C@@H](O)C/C=C\CCCC(=O)O [(8S)-HETE, reference compound]
2 | 1.6 nM | CC[C@@H](Cc1ccc(OC)c(C(=O)NCc2ccc(Oc3ccc(F)c(F)c3)cc2)c1)C(=O)O [Example 9, (2S)-2-{[3-(N-{[4-(3,4-Difluorophenoxy)phenyl]methyl}carbamoyl)-4-methoxyphenyl]methyl}butyric acid]
3 | 2.9 nM | CC[C@@H](Cc1ccc(OC)c(C(=O)NCc2ccc(Oc3cc(F)cc(F)c3)cc2)c1)C(=O)O [Example 10, (2S)-2-{[3-(N-{[4-(3,5-Difluorophenoxy)phenyl]methyl}carbamoyl)-4-methoxyphenyl]methyl}butyric acid]
4 | 2.3 nM | CC[C@@H](Cc1ccc(OC)c(C(=O)NCc2ccc(Oc3cc(F)c(F)c(F)c3)cc2)c1)C(=O)OC [Example 16, Methyl (2S)-2-{[4-methoxy-3-(N-{[4-(3,4,5-trifluorophenoxy)phenyl]methyl}carbamoyl)phenyl]methyl}butyrate]

system: not given; experiment: not given; settings: not given

Row | Structure (SMILES) | melting point
5 | CC[C@@H](Cc1ccc(OC)c(C(=O)NCc2ccc(Oc3ccc(F)c(F)c3)cc2)c1)C(=O)O [Example 9, (2S)-2-{[3-(N-{[4-(3,4-Difluorophenoxy)phenyl]methyl}carbamoyl)-4-methoxyphenyl]methyl}butyric acid] | 118 to 120 °C
6 | CC[C@@H](Cc1ccc(OC)c(C(=O)NCc2ccc(Oc3cc(F)cc(F)c3)cc2)c1)C(=O)O [Example 10, (2S)-2-{[3-(N-{[4-(3,5-Difluorophenoxy)phenyl]methyl}carbamoyl)-4-methoxyphenyl]methyl}butyric acid] | 140 to 142 °C
7 | CC[C@@H](Cc1ccc(OC)c(C(=O)NCc2ccc(Oc3cccc(F)c3F)cc2)c1)C(=O)O [Example 11, (2S)-2-{[3-(N-{[4-(2,3-Difluorophenoxy)phenyl]methyl}carbamoyl)-4-methoxyphenyl]methyl}butyric acid] | 93 to 95 °C
8 | CC[C@@H](Cc1ccc(OC)c(C(=O)NCc2ccc(Oc3cc(F)ccc3F)cc2)c1)C(=O)O [Example 13, (2S)-2-{[3-(N-{[4-(2,5-Difluorophenoxy)phenyl]methyl}carbamoyl)-4-methoxyphenyl]methyl}butyric acid] | 116 to 118 °C
9 | CC[C@@H](Cc1ccc(OC)c(C(=O)NCc2ccc(Oc3c(F)cccc3F)cc2)c1)C(=O)O [Example 14, (2S)-2-{[3-(N-{[4-(2,6-Difluorophenoxy)phenyl]methyl}carbamoyl)-4-methoxyphenyl]methyl}butyric acid] | 106 to 108 °C
10 | CC[C@@H](Cc1ccc(OC)c(C(=O)NCc2ccc(Oc3cc(C(F)(F)F)cc(C(F)(F)F)c3)cc2)c1)C(=O)O [Example 15, (2S)-2-({3-[N-({4-[3,5-Bis(trifluoromethyl)phenoxy]phenyl}methyl)carbamoyl]-4-methoxyphenyl}methyl)butyric acid] | 125 to 127 °C

Continued, values first:

Row | melting point | Structure (SMILES)
11 | 133 to 135 °C | CC[C@@H](Cc1ccc(OC)c(C(=O)NCc2ccc(Oc3cc(F)c(F)c(F)c3)cc2)c1)C(=O)O [Example 17, (2S)-2-{[4-Methoxy-3-(N-{[4-(3,4,5-trifluorophenoxy)phenyl]methyl}carbamoyl)phenyl]methyl}butyric acid]
12 | 145 to 148 °C | CC[C@@H](Cc1ccc(OC)c(C(=O)NCc2ccc(Oc3cc(Cl)cc(Cl)c3)cc2)c1)C(=O)O [Example 30, (2S)-2-{[4-Methoxy-3-(N-{[4-(3,5-dichlorophenoxy)phenyl]methyl}carbamoyl)phenyl]methyl}butyric Acid]
13 | 139 to 141 °C | CC[C@@H](Cc1ccc(OC)c(C(=O)NCc2ccc(Oc3ccc(Cl)c(Cl)c3)cc2)c1)C(=O)O [Example 31, (2S)-2-{[4-Methoxy-3-(N-{[4-(3,4-dichlorophenoxy)phenyl]methyl}carbamoyl)phenyl]methyl}butyric acid]
14 | 117 to 118 °C | CC[C@@H](Cc1ccc(OC)c(C(=O)NCc2ccc(Oc3ccc(Cl)c(F)c3)cc2)c1)C(=O)O [Example 32, (2S)-2-{[4-Methoxy-3-(N-{[4-(4-chloro-3-fluorophenoxy)phenyl]methyl}carbamoyl)phenyl]methyl}butyric acid]
15 | 140 to 142 °C | CC[C@@H](Cc1ccc(OC)c(C(=O)NCc2ccc(Oc3ccc(Br)c(Cl)c3)cc2)c1)C(=O)O [Example 33, (2S)-2-{[4-Methoxy-3-(N-{[4-(4-bromo-3-chlorophenoxy)phenyl]methyl}carbamoyl)phenyl]methyl}butyric acid]
16 | 141 to 142 °C | CC[C@@H](Cc1ccc(OC)c(C(=O)NCc2ccc(Oc3ccc(Cl)c(C(F)(F)F)c3)cc2)c1)C(=O)O [Example 34, (2S)-2-{[4-Methoxy-3-(N-{[4-(4-chloro-3-trifluoromethylphenoxy)phenyl]methyl}carbamoyl)phenyl]methyl}butyric acid]
17 | 125 to 128 °C | CC[C@@H](Cc1ccc(OC)c(C(=O)NCc2ccc(Oc3cc(F)cc(C(F)(F)F)c3)cc2)c1)C(=O)O [Example 35, (2S)-2-{[4-Methoxy-3-(N-{[4-(3-fluoro-5-trifluoromethylphenoxy)phenyl]methyl}carbamoyl)phenyl]methyl}butyric acid]

system: male Beagle dog; experiment: Test of lipid-lowering effect in Beagle dog; format: in vivo; settings: serum; oral 0.03 mg/kg/day once a day for 14 days; before vs after administration
Procedure: Test of Lipid-lowering Effect
To a 27-month old male Beagle dog (HRA Beagle; Convance Research Products Inc.) was orally administered testing compound (0.3 mg/mL) in weak aqueous alkali solution sealed in a gelatin capsule once a day for continuous 14 days (0.03 mg/kg/day). For the feed during the period of administration, standard diet (Canine diet, PMI nutrition International Inc.) was used. Blood was collected before start of administration and after administration for 14 days, and total cholesterol value in serum and triglyceride value were measured by enzymic method [Cholesterol E-Test Wako (Wako Pure Chemical Industries,Ltd.), Liquitec TGII reagent 1, 2 (Rosch) and standard serum for measurement of lipid (Rosch) were used]. The decreasing rates of total cholesterol value and triglyceride value were calculated, respectively, according to following calculation formula. Decreasing rate (%)=(Measured value before administration−Measured value after administration)/Measured value before administration×100 [Result]

Row | Structure (SMILES) | Decreasing rate Total cholesterol | Decreasing rate Triglyceride
18 | CC[C@@H](Cc1ccc(OC)c(C(=O)NCc2ccc(Oc3cc(F)cc(F)c3)cc2)c1)C(=O)O [Example 10, (2S)-2-{[3-(N-{[4-(3,5-Difluorophenoxy)phenyl]methyl}carbamoyl)-4-methoxyphenyl]methyl}butyric acid] | 28% | 50%
